Results as given in patent US12049463B2, “Crystalline form of Tolebrutinib” (GENZYME CORPORATION, priority 2020, dated 2024).
Entries after “also recorded” stand apart in the source; their conditions may differ.

Experiments:
Type in all cases: physicochemical
[1] = Hygroscopicity by dynamic vapor sorption (DVS); conditions: for Weight gain at 80% RH: 25° C.; for Hygroscopicity class: weight gain at 80% RH, Chinese Pharmacopoeia definition
Protocol: Dynamic Vapor Sorption (DVS) was measured via an SMS (Surface Measurement Systems Ltd.) intrinsic DVS instrument. Typical Parameters for DVS test are as follows:
Gas and flow rate: nitrogen, 200 mL/min
RH range: 0% RH to 95% RH
Certain amounts of Form CSI of the present disclosure and prior art amorphous were sampled for hygroscopicity tests using dynamic vapor sorption (DVS) instrument. The weight change at each relative humidity is recorded during the cycle of 0% RH-95% RH-0% RH at 25° C., and the experimental results are listed in Table 12. The DVS plots of Form CSI and amorphous are as depicted in FIG. 8 and FIG. 9, respectively.
Description and definition of hygroscopicity (general notice 9103 drug hygroscopicity test guidelines in 2020 edition of Chinese Pharmacopoeia, experimental condition: 25±1° C., 80±2% RH): […]

[2] = XRPD before and after formulation process; conditions: before and after the formulation process
Protocol: According to the formulation and process in Table 13 and Table 14, the drug products were prepared with an appropriate amount of Form CSI of the present disclosure. XRPD were tested before and after formulation.

[3] = Stability at high temperature (80° C., purity by UPLC); conditions: for Chemical stability in words / Final purity / Purity change: 2 days; for Final purity / Purity change: glass vial with cap; for Initial purity: before storage at 80° C.
Protocol: (§1) The related substance in the present disclosure was detected by UPLC and the parameters are shown below.
Approximately 10 mg of Form CSI of the present disclosure and prior art amorphous were stored at 80° C. for 2 days, and the initial and final purities were determined by UPLC, as shown in Table 11.

[4] = Physical and chemical stability of Form CSI on storage (purity by UPLC, solid form by XRPD); conditions: for Time for which crystalline state doesn't change (stable): open and sealed package
Text: X-ray powder diffraction patterns in the present disclosure were acquired by a Bruker X-ray powder diffractometer. The parameters of the X-ray powder diffraction method of the present disclosure are as follows:
as §1
Said “open packaged” is putting the sample into a glass vial, covering the vial with aluminum foil, and punching 5-10 holes on the foil.
Said “sealed packaged” is putting the sample into a glass vial, capping the vial tightly, and sealing the vial in an aluminum foil bag.
A certain amount of Form CSI of the present disclosure and prior art amorphous were weighed and stored under 25° C./60% RH, 40° C./75% RH and 60° C./75% RH conditions, respectively. The purity and solid form were determined by UPLC and XRPD.

[5] = 25° C./60% RH, open packaged, 6 months
[6] = 25° C./60% RH, sealed packaged, 6 months
[7] = 40° C./75% RH, open packaged, 6 months
[8] = 40° C./75% RH, sealed packaged, 6 months
[9] = 60° C./75% RH, open packaged, 1 month
[10] = 60° C./75% RH, sealed packaged, 1 month

With `C=CC(=O)N1CCC[C@@H](n2c(=O)n(-c3ccc(Oc4ccccc4)cc3)c3c(N)nccc32)C1` [Form CSI, (R)-1-(1-acryloylpiperidin-3-yl)-4-amino-3-(4-phenoxyphenyl)-1H-imidazo[4,5-c]pyridin-2(3H)-one] the “Weight gain of Form CSI relative to that of the prior art” value ([1]; DVS) was 1/7, the “Weight gain at 80% RH” value ([1]; DVS) was 0.53% and the Hygroscopicity class [1] was “slightly hygroscopic”. For the same molecule, the “Physical stability on formulation process (XRPD)” value [2] was “physically stable”, the “Time for which chemical purity remains substantially unchanged” value ([3]; 80° C.) was “at least 2 days” and the “Chemical stability in words” value ([3]; 80° C.) was “basically remains unchanged”. For the same molecule, the Final purity ([3]; 80° C.) was 99.95%, the Purity change ([3]; 80° C.) was 0.01% and the Initial purity [3] was 99.94%. The “Chemical purity during storage” value ([4]; 25° C./60% RH, 6 months) was “above 99.8%”, the “Time for which crystalline state doesn't change (stable)” value ([4]; 25° C./60% RH) was “at least 6 months” and the “Impurity number exceed the qualificated threshold” value [4, 5] was 0. The Purity [4, 5] was 99.81%, the Purity change [4, 5] was −0.05% and the Solid form [4, 5] was “Form CSI”. The “Impurity number exceed the qualificated threshold” value [4, 6] was 0, the Purity [4, 6] was 99.89% and the Purity change [4, 6] was 0.03%. The Solid form [4, 6] was “Form CSI”, the “Chemical purity during storing” value ([4]; 40° C./75% RH 6 months and 60° C./75% RH 1 month) was “above 99.8%” and the “Time for which crystalline state doesn't change (stable)” value ([4]; 40° C./75% RH) was “at least 6 months”. The “Impurity number exceed the qualificated threshold” value [4, 7] was 0, the Purity [4, 7] was 99.81% and the Purity change [4, 7] was −0.05%. The Solid form [4, 7] was “Form CSI”, the “Impurity number exceed the qualificated threshold” value [4, 8] was 0 and the Purity [4, 8] was 99.92%. The Purity change [4, 8] was 0.06%, the Solid form [4, 8] was “Form CSI” and the “Time for which crystalline state doesn't change” value ([4]; 60° C./75% RH, open or sealed package) was “at least 1 month”. The “Impurity number exceed the qualificated threshold” value [4, 9] was 0, the Purity [4, 9] was 99.86% and the Purity change [4, 9] was 0.00%. The Solid form [4, 9] was “Form CSI”, the “Impurity number exceed the qualificated threshold” value [4, 10] was 0 and the Purity [4, 10] was 99.85%. The Purity change [4, 10] was −0.01%, the Solid form [4, 10] was “Form CSI” and the “Impurity number exceed the qualificated threshold” value ([4]; Initial (before storage)) was 0. The Purity ([4]; Initial (before storage)) was 99.86% and the “Impurity content versus the qualificated threshold” value ([4]; throughout the stability investigation processes) was “does not exceed the qualificated threshold; also recorded: did not exceed the qualificated threshold”.

In the case of `C=CC(=O)N1CCC[C@@H](n2c(=O)n(-c3ccc(Oc4ccccc4)cc3)c3c(N)nccc32)C1` [Amorphous, (R)-1-(1-acryloylpiperidin-3-yl)-4-amino-3-(4-phenoxyphenyl)-1H-imidazo[4,5-c]pyridin-2(3H)-one], the “Weight gain at 80% RH” value ([1]; DVS, listed as Prior art solid) was 3.69%, the “Weight gain at 80% RH” value ([1]; DVS, listed as prior art solid) was 3.69% and the Hygroscopicity class ([1]; listed as prior art solid) was “hygroscopic”. For the same molecule, the “Chemical stability in words” value ([3]; 80° C.) was “significant degradation”, the Final purity ([3]; 80° C.) was 98.64% and the Purity change ([3]; 80° C.) was −1.16%. The Initial purity [3] was 99.80%, the “Impurity number exceed the qualificated threshold” value [4, 5] was 1 and the Purity [4, 5] was 99.57%. For the same molecule, the Purity change [4, 5] was −0.23%, the Solid form [4, 5] was “Amorphous” and the “Impurity number exceed the qualificated threshold” value [4, 6] was 1. For the same molecule, the Purity [4, 6] was 99.65%, the Purity change [4, 6] was −0.15% and the Solid form [4, 6] was “Amorphous”. The Purity decrease ([4]; 40° C./75% RH, open package, 6 months) was 3.46%, the “Impurity number exceed the qualificated threshold” value [4, 7] was 4 and the Purity [4, 7] was 96.34%. For the same molecule, the Purity change [4, 7] was −3.46%, the Solid form [4, 7] was “Amorphous” and the “Impurity number exceed the qualificated threshold” value ([4]; 40° C./75% RH, open packaged, 6 months, listed as prior art amorphous) was “four”. The “Impurity number exceed the qualificated threshold” value ([4]; 40° C./75% RH, open packaged, 6 months, listed as prior art solid) was “four”, the “Impurity number exceed the qualificated threshold” value [4, 8] was 2 and the Purity [4, 8] was 99.18%. The Purity change [4, 8] was −0.62%, the Solid form [4, 8] was “Amorphous” and the Purity decrease ([4]; 60° C./75% RH, open package, 1 month) was “over 6.3%”. The “Impurity number exceed the qualificated threshold” value [4, 9] was 4, the Purity [4, 9] was 93.48% and the Purity change [4, 9] was −6.32%. The Solid form [4, 9] was “Amorphous”, the “Impurity number exceed the qualificated threshold” value ([4]; 60° C./75% RH, open packaged, 1 month, listed as prior art amorphous) was “four” and the “Impurity number exceed the qualificated threshold” value ([4]; 60° C./75% RH, open packaged, 1 month, listed as prior art solid) was “four”. For the same molecule, the Purity decrease ([4]; 60° C./75% RH, sealed package, 1 month) was 2.76%, the “Impurity number exceed the qualificated threshold” value [4, 10] was 2 and the Purity [4, 10] was 97.04%. For the same molecule, the Purity change [4, 10] was −2.76%, the Solid form [4, 10] was “Amorphous” and the “Impurity number exceed the qualificated threshold” value ([4]; 60° C./75% RH, sealed packaged, 1 month, listed as prior art amorphous) was “two”. The “Impurity number exceed the qualificated threshold” value ([4]; 60° C./75% RH, sealed packaged, 1 month, listed as prior art solid) was “two”, the “Impurity number exceed the qualificated threshold” value ([4]; Initial (before storage)) was 1 and the Purity ([4]; Initial (before storage)) was 99.80%.
